Patent US20070167488A1, “Novel therapeutic use” (Leo Pharma A/S, priority 2003, published 2007)

Test system: IL-2
Test: Inhibition of IL-2 production in phytohemagglutinin-activated human PBMCs (sandwich ELISA)
Type: cell-based
Conditions: approximately 46 hours; for IC50: Homo sapiens, PBMC, 46 h, read-out: IL-2 pIC50 (converted)
Procedure: Peripheral blood mononuclear cells (PBMCs) were isolated from human blood. The lymphocytes, a fraction of the PBMCs, were activated to secrete IL-2 using the polyclonal mitogen phytohemagglutinin. The test compounds were added in concentrations from 10^−5 to 10^−10, and the cells (10^6/ml) were incubated in microtiter wells at 37° C. for approximately 46 hours.
After 46 hours the cells were centrifuged down for 25 minutes at 1000×g and the supernatants were transferred to transferred to microtiter wells precoated with a monoclonal antibody against human IL-2. The IL-2 concentration in the supernatants was determined by a sandwich ELISA. Microtiter plates were coated (1 μg/ml) with a monoclonal antibody (R&D, UK) against human IL-2, washed 4 times, blocked with 1% casein buffer for 2 hours and washed 2 times. 100 μl sample was added to each well and incubated overnight. All samples were tested in triplicate. 100 μl IL-2 standards (R&D, UK) at a concentration range of 10000-0 pg/ml were tested in triplicate. After incubation the plates were washed and incubated with biotinylated polyclonal secondary antibody against human IL-2 (R&D, UK) for 45 minutes and thereafter washed 4 times. 100 μl enzyme conjugate, horseradish peroxidase conjugated streptavidin diluted 1:4000 (Zymed, USA), was added to all wells and incubated for 30 minutes. 100 μl OPD substrate (KEM EN TEC-DK) was added and the enzyme/substrate reaction stopped after 10 minutes at room temperature with 50 μl 1 M H2SO4. The colour development (optical density—OD) was determined at 492 nm on an ELISA reader and the background OD at 620 nm subtracted).

Row | IC50 [nM] | IL-2 pIC50 | SMILES
1 | 10 | – | COc1ccc(OC)c(/C=C2/C(=O)N(O)c3ccccc32)c1
2 | 20 | – | COc1cc[nH]c1/C=C1\C(=O)Nc2ccccc21
3 | 31.6 | – | COc1ccc(CN2C(=O)/C(=C\c3[nH]c(C)cc3C)c3ccccc32)cc1
4 | 1 | – | COc1ccc(OC)c(/C=C2/C(=O)Nc3cc(Br)ccc32)c1 [drawing 164]
5 | 31.6 | – | COc1ccc(OC)c(/C=C2/C(=O)Nc3cc(Cl)ccc32)c1
6 | 631 | – | Cc1ccc(/C=C2\C(=O)Nc3ccccc32)c(C)c1
7 | 10 | – | COc1ccc(OC)c(/C=C2/C(=O)Nc3c(Br)cccc32)c1
8 | 10 | – | CON1C(=O)/C(=C\c2[nH]c(C)cc2C)c2ccccc21
9 | 10 | – | COc1ccc(Br)cc1/C=C1/C(=O)Nc2ccccc21
10 | 0.2 | – | COc1ccc2c(/C=C3\C(=O)Nc4ccccc43)c[nH]c2c1
11 | 6.31 | – | COc1ccc2c(/C=C3\C(=O)Nc4ccccc43)cn(C)c2c1
12 | 10 | – | COc1ccc2[nH]cc(/C=C3\C(=O)Nc4ccccc43)c2c1
13 | 100 | – | COc1ccc(OC)c(/C=C2/C(=O)Nc3ccc(Br)cc32)c1
14 | 2 | – | COc1ccc(/C=C2/C(=O)Nc3ccccc32)c(OC)c1
15 | 10 | – | COc1ccc(OC)c(/C=C2/C(=O)Nc3c(F)cc(F)cc32)c1
16 | 2 | – | Cn1cc(/C=C2\C(=O)Nc3ccccc32)c2ccccc21
17 | 2 | – | O=C1Nc2ccc(Br)cc2/C1=C/c1c[nH]c2ccccc12
18 | 0.2 | – | CCCn1cc(/C=C2\C(=O)Nc3ccccc32)c2ccccc21 [drawing 137]
19 | 31.6 | – | COc1ccc2c(c1)/C(=C/c1c[nH]c3ccccc13)C(=O)N2
20 | 63.1 | – | O=C1Nc2ccccc2/C1=C/c1ccccc1F
21 | 0.1 | – | Cc1ccc2c(/C=C3/C(=O)Nc4ccccc43)c[nH]c2c1
22 | 316 | – | COc1ccc(O)c(/C=C2/C(=O)Nc3ccccc32)c1
23 | 2 | – | COc1cc(OC)c(OC)cc1/C=C1/C(=O)Nc2ccccc21
24 | 1 | – | O=C1Nc2ccccc2/C1=C/c1c[nH]c2cc(F)ccc12
25 | 39.8 | – | O=C1Nc2ccccc2/C1=C\c1cc(Br)ccc1Br
26 | – | 6.5 | COc1ccc(OC)c(/C=C2/C(=O)Nc3ccc(N)cc32)c1

Row | IC50 [nM] | IL-2 pIC50 | SMILES
27 | 20 | – | COc1ccc(OC)c(/C=C2/C(=O)Nc3ccc(F)c(F)c32)c1
28 | 50.1 | – | Cc1ccc(/C=C2\C(=O)Nc3ccccc32)cc1C
29 | 1 | – | CC(C)(C)OC(=O)N1C(=O)/C(=C\c2c[nH]c3ccccc23)c2ccccc21
30 | 1 | – | O=C1Nc2ccccc2/C1=C\c1ccc(Cl)cc1Cl
31 | 20 | – | O=C1Nc2ccccc2/C1=C/c1cc(Br)ccc1O
32 | 200 | – | O=C1Nc2ccccc2/C1=C/c1ccc(Cl)cc1Cl
33 | 63.1 | – | COc1ccc(F)c(/C=C2/C(=O)Nc3ccccc32)c1
34 | 10 | – | Cc1cc(C)c(/C=C2\C(=O)N(O)c3ccccc32)[nH]1 [drawing 224]
35 | 6.31 | – | COc1cccc(/C=C2/C(=O)Nc3ccccc32)c1
36 | 20 | – | Cc1ccc2[nH]cc(/C=C3/C(=O)Nc4ccccc43)c2c1
37 | 631 | – | CCOc1ccc(OCC)c(/C=C2/C(=O)Nc3ccccc32)c1
38 | 501 | – | COc1ccc(OC)c(/C=C2/C(=O)Nc3c(F)cccc32)c1
39 | 1 | – | Cc1ccc(/C=C2/C(=O)Nc3ccccc32)c(C)c1
40 | 794 | – | COc1cc(/C=C2/C(=O)Nc3ccccc32)c(OCc2ccccc2)cc1OC
41 | 316 | – | O=C1Nc2ccccc2/C1=C\c1ccc(O)cc1O
42 | 3.98 | – | Cc1cccc2c(/C=C3/C(=O)Nc4ccccc43)c[nH]c12
43 | 31.6 | – | COc1ccc(OC)c(/C=C2/C(=O)Nc3c(C#N)cccc32)c1
44 | 100 | – | O=C1Nc2ccc(Cl)cc2/C1=C/c1ccccc1O
45 | 200 | – | COc1ccc(O)c(/C=C2\C(=O)Nc3ccccc32)c1
46 | 794 | – | COc1ccc(OC)c(/C=C2/C(=O)Nc3cc(S(C)(=O)=O)ccc32)c1
47 | 100 | – | Cc1ccc(C)c(/C=C2/C(=O)Nc3ccccc32)c1 [drawing 112]
48 | 63.1 | – | O=C1Nc2ccccc2/C1=C\c1cc(OC(F)(F)F)ccc1O
49 | 631 | – | Cc1cccc(/C=C2\C(=O)Nc3ccccc32)c1
50 | 1 | – | Cc1[nH]c(/C=C2\C(=O)N(O)c3ccccc32)c(C)c1Br
51 | 100 | – | O=C1Nc2ccccc2/C1=C\c1cc(O)ccc1O

The next lines start with the molecule.

Row | SMILES | IC50 [nM] | IL-2 pIC50
52 | Cc1cc(C)c(/C=C2\C(=O)Nc3cccc(C)c32)[nH]1 | 39.8 | –
53 | Cc1[nH]c2ccccc2c1/C=C1/C(=O)Nc2ccccc21 [drawing 197] | 794 | –
54 | Cc1cc(C(=O)NCC2(c3ccc(Cl)cc3)CC2)[nH]c1/C=C1\C(=O)Nc2ccccc21 | 63.1 | –
55 | CCn1c2ccccc2c2cc(/C=C3/C(=O)Nc4ccccc43)ccc21 | 200 | –
56 | Cc1cc(C[n+]2ccccc2)[nH]c1/C=C1\C(=O)Nc2ccccc21 | 6.31 | –
57 | Cc1cc(C(=O)NCCCc2ccccc2)[nH]c1/C=C1\C(=O)Nc2ccccc21 | 50.1 | –
58 | N#Cc1cccc2c1NC(=O)/C2=C\c1c[nH]c2ccccc12 | 1 | –
59 | O=C1Nc2ccc(Cl)cc2/C1=C/c1c[nH]c2ccccc12 | 10 | –
60 | CCOC(=O)c1cc(C)c(/C=C2\C(=O)Nc3ccccc32)[nH]1 [drawing 139] | 10 | –
61 | O=C1Nc2ccccc2/C1=C\c1cc(-c2ccccc2)cs1 | 31.6 | –
62 | O=C1Nc2c(F)cc(F)cc2/C1=C/c1c[nH]c2ccccc12 | 2 | –
63 | O=C1Nc2ccccc2/C1=C\c1cccc(Cl)c1 | 10 | –
64 | Cc1cc(C)c(/C=C2\C(=O)Nc3ccc(O)cc32)[nH]1 | 794 | –
65 | O=C1Nc2ccccc2/C1=C/c1ccc(Cl)cc1 | 79.4 | –
66 | Cc1cc(C(=O)NCCCC2CCN(C=O)CC2)[nH]c1/C=C1\C(=O)Nc2ccccc21 | 50.1 | –
67 | Cc1cc(C(=O)NCCCCCO)[nH]c1/C=C1\C(=O)Nc2ccccc21 | 63.1 | –
68 | O=C1Nc2ccccc2/C1=C\c1cn(Cc2cnc(Cl)s2)c2ccccc12 | 10 | –
69 | CCN(CC)CCNC(=O)c1cc(C)c(/C=C2\C(=O)Nc3ccccc32)[nH]1 | 39.8 | –
70 | O=C1Nc2ccccc2/C1=C\c1cc(Cl)cc(Cl)c1O | 398 | –
71 | COc1cc[nH]c1/C=C1\C(=O)Nc2cccc(Cl)c21 | 0.1 | –
72 | O=C1Nc2ccccc2/C1=C/c1c[nH]c2ccc(OCc3ccccc3)cc12 | 10 | –
73 | COC(=O)CCCNC(=O)c1cc(C)c(/C=C2\C(=O)Nc3ccccc32)[nH]1 | 50.1 | –
74 | O=C(O)CCn1cc(/C=C2\C(=O)Nc3ccccc32)c2ccccc21 | 200 | –
75 | Cc1cc(C(=O)NCCO)[nH]c1/C=C1\C(=O)Nc2ccccc21 [drawing 176] | 31.6 | –
76 | Cc1cc(C(=O)NCCc2c[nH]c3ccccc23)[nH]c1/C=C1\C(=O)Nc2ccccc21 | 39.8 | –
77 | O=C1Nc2cc(C(F)(F)F)ccc2/C1=C/c1c[nH]c2ccccc12 | 20 | –
78 | Cc1cc(C(=O)NCCCCCCO)[nH]c1/C=C1\C(=O)Nc2ccccc21 | 100 | –

Row | SMILES | IC50 [nM] | IL-2 pIC50
79 | O=C1Nc2cc(F)ccc2/C1=C/c1c[nH]c2ccccc12 | 3.16 | –
80 | O=C1Nc2ccccc2/C1=C/c1ccc2ccccc2c1 | 631 | –
81 | Cc1cc(C)c(/C=C2\C(=O)Nc3cccc(Cl)c32)[nH]1 | 1 | –
82 | O=C1Nc2cc(Cl)ccc2/C1=C/c1c[nH]c2ccccc12 | 63.1 | –
83 | Cc1[nH]c(/C=C2\C(=O)Nc3ccccc32)c(C)c1CCC(=O)O | 50.1 | –
84 | O=C1Nc2ccccc2/C1=C\c1cccc(F)c1 | 200 | –
85 | O=C1Nc2ccccc2/C1=C\c1cccc(Br)c1 | 10 | –
86 | O=C1Nc2ccccc2/C1=C\c1ccoc1 | 631 | –
87 | Cc1[nH]c(/C=C2\C(=O)Nc3ccccc32)c(C)c1Br [drawing 211] | 79.4 | –
88 | O=CN1CCN(c2ccc(/C=C3\C(=O)Nc4ccccc43)cc2)CC1 | 316 | –
89 | Cc1cc(/C=C2/C(=O)Nc3ccccc32)oc1C | 3.98 | –
90 | O=C(O)Cn1cc(/C=C2\C(=O)Nc3ccccc32)c2ccccc21 [drawing 229] | 39.8 | –
91 | O=C1Nc2ccccc2/C1=C/c1cn(Cc2ccccc2)c2ccccc12 | 3.98 | –
92 | O=C1Nc2ccccc2/C1=C/c1ccc(Cl)c(Cl)c1 | 20 | –
93 | CCOC(=O)CCCCCNC(=O)c1cc(C)c(/C=C2\C(=O)Nc3ccccc32)[nH]1 | 79.4 | –
94 | Cc1cc(C)cc(-c2ccc(N(C)CCN(C)C)c(/C=C3\C(=O)Nc4ccccc43)c2)c1 | 63.1 | –
95 | Cc1cc(C(=O)O)[nH]c1/C=C1\C(=O)Nc2ccccc21 | 200 | –
96 | O=C1Nc2cc(Br)ccc2/C1=C/c1c[nH]c2ccccc12 | 3.16 | –
97 | O=C1Nc2c(F)cccc2/C1=C/c1c[nH]c2ccccc12 | 0.316 | –
98 | O=C1Nc2ccccc2/C1=C\c1ccc(-c2ccccc2)o1 | 3.98 | –
99 | Cc1cc(C(=O)OCc2ccccc2)[nH]c1/C=C1\C(=O)Nc2ccccc21 | 20 | –
100 | Cc1cc(C(=O)OCc2ccncc2)[nH]c1/C=C1\C(=O)Nc2ccccc21 | 31.6 | –
101 | Cc1cc(CO)[nH]c1/C=C1\C(=O)Nc2ccccc21 [drawing 144] | 39.8 | –
102 | O=C1Nc2ccccc2/C1=C\c1ccc([N+](=O)[O-])s1 | 31.6 | –
103 | O=C1Nc2ccccc2/C1=C/c1c[nH]c2cccc(OCc3ccccc3)c12 | 100 | –
104 | Cc1cc(C(=O)NCC2CCCCC2)[nH]c1/C=C1\C(=O)Nc2ccccc21 | 31.6 | –
105 | Cc1cc(C)c(/C=C2\C(=O)Nc3ccc(F)cc32)[nH]1 | 100 | –
